US20260232812A1, “BIFUNCTIONAL MOLECULES FOR TARGETED PROTEIN DEGRADATION” (Amphista Therapeutics Limited, priority 2022, published 2026)

How the values were obtained:
BRD9 [1] = biological target: T1, BRD9 (Homo sapiens, UniProt Q9H8M2); test: Assay Protocol 1 - Degradation of HiBit-BRD9 in HEK293; assay type: cell-based; details: titration up to 10 μM; for DC50: Assay Protocol 1: HiBit-BRD9 in HEK293, 6 h; for Dmax: HEK293, Assay Protocol 1: HiBit-BRD9 in HEK293, 6 h
T1 sequence (Q9H8M2 1-597): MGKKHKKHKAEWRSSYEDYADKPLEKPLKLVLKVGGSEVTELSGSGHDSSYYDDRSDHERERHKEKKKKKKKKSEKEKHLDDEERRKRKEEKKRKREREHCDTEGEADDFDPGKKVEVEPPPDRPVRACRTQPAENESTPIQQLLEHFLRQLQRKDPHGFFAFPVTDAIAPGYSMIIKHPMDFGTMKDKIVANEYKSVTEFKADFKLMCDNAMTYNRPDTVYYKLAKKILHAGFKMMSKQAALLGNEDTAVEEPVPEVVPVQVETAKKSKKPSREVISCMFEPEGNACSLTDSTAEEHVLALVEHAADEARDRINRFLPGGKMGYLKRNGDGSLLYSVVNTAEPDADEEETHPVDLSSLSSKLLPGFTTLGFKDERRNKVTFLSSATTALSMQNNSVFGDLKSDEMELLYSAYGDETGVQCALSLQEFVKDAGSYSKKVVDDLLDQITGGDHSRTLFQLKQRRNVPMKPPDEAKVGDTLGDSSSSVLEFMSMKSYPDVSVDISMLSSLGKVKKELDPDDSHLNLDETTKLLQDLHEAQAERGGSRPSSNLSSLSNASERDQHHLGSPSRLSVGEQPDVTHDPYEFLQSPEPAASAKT
Experimental: Assay Protocol 1—Degradation of HiBit-BRD9 in HEK293
HEK293 stably expressing LgBit and containing a HiBit insertion for BRD9 were plated in 384-well tissue culture plates at a density of 8×10^3 per well in a volume of 36 μL and incubated overnight at 37° C. and 5% CO2. Wells were treated with test compounds (11 pt titration up to 10 μM) for 6 h prior to addition of Nano-Glo® Hibit Lytic buffer (1:50 substrate and 1:100 LgBit protein) and reading on a PheraSTAR. Degradation data was plotted and analysed using Prism 8 (Graphpad).

BRD9 [2] = biological target: T1, BRD9; test: Assay Protocol 2 - Degradation of BRD9 (IF) in MV4-11 cells; assay type: cell-based; set-up: host or cells: MV4-11; details: Assay Protocol 2: BRD9 immunofluorescence, 24 hours
Experimental: Assay Protocol 2—Degradation of BRD9 (IF)
A suspension of MV4-11 cells (ATCC CRL-9591) was prepared in phenol red-free assay media (IMDM Thermo Scientific 21056023+10% FBS ATCC 302025) and cells were seeded at 20,000 cells per well (45 μL) in sterile black poly-d-lysine coated 384 well plates (Greiner 781948). Compounds were prepared at 1000× final concentration in DMSO, diluted 1:100 in assay media, and 5 μL compound was added to each well of the cell plate. Cells were incubated for 24 hours at 37° C. with 5% CO2. All the following incubations for immunofluorescence staining were at room temperature. 15 μL of 16% PFA was added to each well (3.7% final concentration) and the cells were fixed for 15 min then washed twice with DPBS. Cells were permeabilised with 0.1% Triton X-100 for 10 min, Triton X-100 was removed, then blocked with 1% BSA in DPBS for 1 hour. Cells were stained with 25 μL anti-BRD9 E4Q3F antibody (CST 48306) diluted 1:25600 in 1% BSA in DPBS for 2-3 hours. Wells were washed twice with DPBS then incubated with 25 μL of 1% BSA containing a 1:1000 dilution of Anti-rabbit Alexa Fluor™ 647 secondary antibody (Thermo Scientific A^21244) and 1 μg/mL Hoechst nuclear counter stain (Abcam ab228551) for 1 hour. Wells were washed twice with DPBS prior to imaging on a Perkin Elmer Operetta CLS with 10× air lens. Images were processed using Harmony High-Content Imaging and Analysis Software (Perkin Elmer) and the mean contrast ratio of Alexa Fluor™ 647 in central nuclei was used to quantify BRD9 protein levels. Data was further analysed using Dotmatics software and % BRD9 remaining was calculated by normalisation to average data from high and low control wells (cells treated with DMSO or 100 nM CFT-8634 respectively).

SMILES | DC50 (BRD9 [1]) | Dmax (BRD9 [2]) | DC50 (BRD9 [2]) | Dmax (BRD9 [1])
COc1cc(-c2cn(C)c(=O)c(C)c2C)cc(OC)c1CN1CC2CC(C1)N2C(=O)/C(C#N)=C/c1nccs1 (mixture of isomers) [BRD9l, (E/Z)-2-(3-(2,6-dimethoxy-4-(1,4,5-trimethyl-6-oxo-1,6-dihydropyridin-3-yl)benzyl)-3,6-diazabicyclo[3.1.1]heptane-6-carbonyl)-3-(thiazol-2-yl)acrylonitrile] | > 200 nM | 30 to 50% | – | –
COc1cc(-c2cn(C)c(=O)c(C)c2C)cc(OC)c1CN1C2CC1CN(C(=O)/C(C#N)=C/c1cccc(Br)n1)C2 (mixture of isomers) [BRD9o, (E/Z)-3-(6-bromopyridin-2-yl)-2-(6-(2,6-dimethoxy-4-(1,4,5-trimethyl-6-oxo-1,6-dihydropyridin-3-yl)benzyl)-3,6-diazabicyclo[3.1.1]heptane-3-carbonyl)acrylonitrile] | < 25 nM | ≥ 70% | < 25 nM | –
COc1cc(-c2cn(C)c(=O)c(C)c2C)cc(OC)c1CN1CCN(C(=O)/C(C#N)=C/C(C)(C)C)CC1 [BRD9a, (E/Z)-2-(4-(2,6-dimethoxy-4-(1,4,5-trimethyl-6-oxo-1,6-dihydropyridin-3-yl)benzyl)piperazine-1-carbonyl)-4,4-dimethylpent-2-enenitrile] | 25 to 200 nM | – | < 25 nM | –
COc1cc(-c2cn(C)c(=O)c(C)c2C)cc(OC)c1CN1C[C@@H](C)N(C(=O)/C(C#N)=C/C(C)(C)C)C[C@@H]1C [BRD9ad, (E)-2-((2R,5S)-4-(2,6-dimethoxy-4-(1,4,5-trimethyl-6-oxo-1,6-dihydropyridin-3-yl)benzyl)-2,5-dimethylpiperazine-1-carbonyl)-4,4-dimethylpent-2-enenitrile] | – | 50 to 70% | 25 to 200 nM | –
COc1cc(-c2cn(C)c(=O)c(C)c2C)cc(OC)c1CN1CCN(C(=O)C2CC(C)CN(C(=O)/C(C#N)=C/C(C)(C)C)C2)CC1 (centres unmarked) [BRD9ba, (E)-2-(3-(4-(2,6-dimethoxy-4-(1,4,5-trimethyl-6-oxo-1,6-dihydropyridin-3-yl)benzyl)piperazine-1-carbonyl)-5-methylpiperidine-1-carbonyl)-4,4-dimethylpent-2-enenitrile] | – | ≥ 70% | < 25 nM | –
COc1cc(-c2cn(C)c(=O)c(C)c2C)cc(OC)c1CN1CC2CC1CN2C(=O)/C(C#N)=C/c1nccs1 (mixture of isomers) [BRD9i, (E/Z)-2-(5-(2,6-dimethoxy-4-(1,4,5-trimethyl-6-oxo-1,6-dihydropyridin-3-yl)benzyl)-2,5-diazabicyclo[2.2.1]heptane-2-carbonyl)-3-(thiazol-2-yl)acrylonitrile] | – | 30 to 50% | > 200 nM | –
COc1cc(-c2cn(C)c(=O)c(C)c2C)cc(OC)c1CN1C2CC1CN(C(=O)/C(C#N)=C/C1(F)CC1)C2 [BRD9ag, (E)-2-(6-(2,6-dimethoxy-4-(1,4,5-trimethyl-6-oxo-1,6-dihydropyridin-3-yl)benzyl)-3,6-diazabicyclo[3.1.1]heptane-3-carbonyl)-3-(1-fluorocyclopropyl)acrylonitrile] | – | ≥ 70% | < 25 nM | –
COc1cc(-c2cn(C)c(=O)c(C)c2C)cc(OC)c1CN1C2CC1CN(C(=O)/C(C#N)=C/c1cccc(C(F)(F)F)n1)C2 [BRD9af, (E)-2-(6-(2,6-dimethoxy-4-(1,4,5-trimethyl-6-oxo-1,6-dihydropyridin-3-yl)benzyl)-3,6-diazabicyclo[3.1.1]heptane-3-carbonyl)-3-(6-(trifluoromethyl)pyridin-2-yl)acrylonitrile] | – | ≥ 70% | < 25 nM | –
COc1cc(-c2cn(C)c(=O)c(C)c2C)cc(OC)c1CN(C)C1CCN(C(=O)/C(C#N)=C/c2cccc(Br)n2)CC1 [BRD9z, (E/Z)-3-(6-bromopyridin-2-yl)-2-(4-((2,6-dimethoxy-4-(1,4,5-trimethyl-6-oxo-1,6-dihydropyridin-3-yl)benzyl)(methyl)amino)piperidine-1-carbonyl)acrylonitrile] | < 25 nM | – | < 25 nM | ≥ 70%
COc1cc(-c2cn(C)c(=O)c(C)c2C)cc(OC)c1CN1CCN(C(=O)[C@@H]2CN(C(=O)/C(C#N)=C/c3nccs3)C[C@H]2c2ccccc2)CC1 [BRD9ai] | – | 50 to 70% | – | 30 to 50%
COc1cc(-c2cn(C)c(=O)c(C)c2C)cc(OC)c1C(=O)N1CCCN(C(=O)/C(C#N)=C/C(C)(C)C)CC1 [BRD9v, (E/Z)-2-(4-(2,6-dimethoxy-4-(1,4,5-trimethyl-6-oxo-1,6-dihydropyridin-3-yl)benzoyl)-1,4-diazepane-1-carbonyl)-4,4-dimethylpent-2-enenitrile] | – | – | 25 to 200 nM | –
COc1cc(-c2cn(C)c(=O)c(C)c2C)cc(OC)c1C(=O)N1CC2CC1CN2C(=O)/C(C#N)=C/C(C)(C)C (mixture of isomers) [BRD9t, (E/Z)-2-(5-(2,6-dimethoxy-4-(1,4,5-trimethyl-6-oxo-1,6-dihydropyridin-3-yl)benzoyl)-2,5-diazabicyclo[2.2.1]heptane-2-carbonyl)-4,4-dimethylpent-2-enenitrile] | – | – | 25 to 200 nM | –
COc1cc(-c2cn(C)c(=O)c(C)c2C)cc(OC)c1CN1CC2CC1CN2C(=O)/C(C#N)=C/C(C)(C)C (mixture of isomers) [BRD9b, (E/Z)-2-(5-(2,6-dimethoxy-4-(1,4,5-trimethyl-6-oxo-1,6-dihydropyridin-3-yl)benzyl)-2,5-diazabicyclo[2.2.1]heptane-2-carbonyl)-4,4-dimethylpent-2-enenitrile] | – | – | > 200 nM | –
COc1cc(-c2cn(C)c(=O)c(C)c2C)cc(OC)c1C(=O)N1CCN(C(=O)/C(C#N)=C/C(C)(C)C)CC1 [BRD9s, (E/Z)-2-(4-(2,6-dimethoxy-4-(1,4,5-trimethyl-6-oxo-1,6-dihydropyridin-3-yl)benzoyl)piperazine-1-carbonyl)-4,4-dimethylpent-2-enenitrile] | – | – | 25 to 200 nM | –
COc1cc(-c2cn(C)c(=O)c(C)c2C)cc(OC)c1CN1CCN(C(=O)/C(C#N)=C/c2nccs2)CC1 [BRD9g, (E/Z)-2-(4-(2,6-dimethoxy-4-(1,4,5-trimethyl-6-oxo-1,6-dihydropyridin-3-yl)benzyl)piperazine-1-carbonyl)-3-(thiazol-2-yl)acrylonitrile] | > 200 nM | – | – | 30 to 50%
COc1cc(-c2cn(C)c(=O)c3ccsc23)cc(OC)c1CN1CCN(C(=O)/C(C#N)=C/C(C)(C)C)CC1 [BRD9w, (E/Z)-2-(4-(2,6-dimethoxy-4-(5-methyl-4-oxo-4,5-dihydrothieno[3,2-c]pyridin-7-yl)benzyl)piperazine-1-carbonyl)-4,4-dimethylpent-2-enenitrile] | 25 to 200 nM | – | – | –
COc1cc(-c2cn(C)c(=O)c(C)c2C)cc(OC)c1CN1C2CC1CN(C(=O)/C(C#N)=C/C1(C(F)(F)F)CCC1)C2 (mixture of isomers) [BRD9p, (E/Z)-2-(6-(2,6-dimethoxy-4-(1,4,5-trimethyl-6-oxo-1,6-dihydropyridin-3-yl)benzyl)-3,6-diazabicyclo[3.1.1]heptane-3-carbonyl)-3-(1-(trifluoromethyl)cyclobutyl)acrylonitrile] | – | 50 to 70% | 25 to 200 nM | –
COc1cc(-c2cn(C)c(=O)c(C)c2C)cc(OC)c1CN1CC2CC(C1)N2C(=O)/C(C#N)=C/c1cccc(Br)n1 (mixture of isomers) [BRD9m, (E/Z)-3-(6-bromopyridin-2-yl)-2-(3-(2,6-dimethoxy-4-(1,4,5-trimethyl-6-oxo-1,6-dihydropyridin-3-yl)benzyl)-3,6-diazabicyclo[3.1.1]heptane-6-carbonyl)acrylonitrile] | – | ≥ 70% | – | –
